The source of these data is PubChem BioAssay AID2165 (The Scripps Research Institute Molecular Screening Center, 2009).

Structures are written as SMILES. Activity calls are given as the source filed them. Rule as the data show it: active = IC50 below about 9 µM; inactive = the rest.

The assay addresses Tyrosine-protein kinase JAK2 (Homo sapiens) (UniProt O60674). In words: JAK2V617F project follow-up: kinase, reporter, cytotoxicity – HEL and Ba/F3 cells, late-stage follow-up (AID 2165). The note with it: JAK2V617F panel: kinase, IRF1 reporter.

Broadly, the IC50 is the concentration at which inhibition is half-maximal.

Tyrosine-protein kinase JAK2 (Homo sapiens), sequence (O60674 whole entry, looked up, change not shown): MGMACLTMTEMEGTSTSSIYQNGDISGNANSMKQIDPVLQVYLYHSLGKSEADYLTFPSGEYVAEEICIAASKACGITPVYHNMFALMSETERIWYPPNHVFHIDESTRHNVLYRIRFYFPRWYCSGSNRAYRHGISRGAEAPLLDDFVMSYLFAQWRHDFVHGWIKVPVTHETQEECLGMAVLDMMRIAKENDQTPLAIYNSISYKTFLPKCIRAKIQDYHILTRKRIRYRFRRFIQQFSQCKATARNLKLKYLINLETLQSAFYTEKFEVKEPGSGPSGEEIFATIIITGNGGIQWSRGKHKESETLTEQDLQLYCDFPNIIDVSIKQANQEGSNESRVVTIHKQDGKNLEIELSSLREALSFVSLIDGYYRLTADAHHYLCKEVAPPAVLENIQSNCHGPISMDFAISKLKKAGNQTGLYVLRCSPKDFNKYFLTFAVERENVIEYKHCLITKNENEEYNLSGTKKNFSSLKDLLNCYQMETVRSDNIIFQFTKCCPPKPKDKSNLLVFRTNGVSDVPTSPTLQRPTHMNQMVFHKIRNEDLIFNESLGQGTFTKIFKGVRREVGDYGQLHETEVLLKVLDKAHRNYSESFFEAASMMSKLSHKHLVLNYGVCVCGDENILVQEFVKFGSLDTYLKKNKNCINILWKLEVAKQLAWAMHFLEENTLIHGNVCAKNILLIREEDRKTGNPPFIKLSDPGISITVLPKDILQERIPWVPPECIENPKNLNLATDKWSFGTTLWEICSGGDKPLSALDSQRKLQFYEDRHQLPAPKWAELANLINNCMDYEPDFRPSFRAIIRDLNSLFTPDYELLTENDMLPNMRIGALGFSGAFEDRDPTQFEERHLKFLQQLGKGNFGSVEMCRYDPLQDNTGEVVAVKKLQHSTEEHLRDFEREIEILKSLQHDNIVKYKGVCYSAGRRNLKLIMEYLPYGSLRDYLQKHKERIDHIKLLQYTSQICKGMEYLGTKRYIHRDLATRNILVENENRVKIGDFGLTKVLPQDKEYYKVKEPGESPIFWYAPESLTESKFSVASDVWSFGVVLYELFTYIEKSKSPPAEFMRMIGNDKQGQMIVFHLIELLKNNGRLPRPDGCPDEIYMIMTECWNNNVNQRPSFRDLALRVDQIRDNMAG

Regarding `CCCC(=O)N(C1CC(C)C(C#N)(C#N)C1(C#N)C#N)N(C)C` (configuration not stated), the half-inhibitory concentration (IC50) reads like this: (Ba/F3, irf1 reporter) 0.452 µM; (HEL, irf1 reporter) 5.75 µM.
For the compound `COc1cc2ncnc(NC3CCCCC3)c2cc1OC`, the IC50 is 5.22 µM (HEL, irf1 reporter) and > 40 µM (inactive) (JAK2V617F).
In the case of `O=C(CCl)NC(=O)NC12CC3CC(CC(C3)C1)C2`, the 50% inhibitory concentration (IC50) was 3.56 µM (Ba/F3, irf1 reporter) and 7.9 µM (HEL, irf1 reporter).
Consider `Cc1cc2[nH]c3c(c[n+](C)c4ccccc34)c2cc1C`, for which the IC50 was 7.72 µM (Ba/F3, irf1 reporter) and 7.35 µM (HEL, irf1 reporter).
The corresponding values for `O=S(=O)(c1cnc(Cl)c(Cl)c1)N1CCc2ccccc21` are 6.39 µM and > 40 µM (inactive).
With `Cc1ccc(O)c(NC(=O)COc2cccc3ccccc23)c1`, the IC50 (JAK2V617F) is 2.34 µM.
Regarding `O=C(CSc1nnnn1-c1ccc(F)cc1)c1ccc(O)c(O)c1`, the IC50 is 12.4 µM (Ba/F3, irf1 reporter) and 16.5 µM (HEL, irf1 reporter).
The matching figures for `Cc1c(Cc2ccccc2)c(=O)oc2c(O)c(O)ccc12`: 6.58 µM and 31.9 µM.
Turning to `Cc1[nH]c(=O)c(C(=O)C=Cc2cccc(Br)c2)c2c1CCCC2`, the IC50 was 0.59 µM (Ba/F3, irf1 reporter); 1.13 µM (HEL, irf1 reporter); 0.55 µM (JAK2V617F).
Consider `COc1cc2ncnc(Sc3ccc(C)cc3)c2cc1OC`, for which the IC50 was 4.55 µM (HEL, irf1 reporter) and > 40 µM (inactive) (JAK2V617F).
Take `Cc1[nH]c(=O)c(C(=O)C=Cc2ccc(I)cc2)c2c1CCCC2`: the concentration for half-maximal inhibition (IC50) is 0.82 µM (Ba/F3, irf1 reporter); 11.2 µM (HEL, irf1 reporter); > 40 µM (inactive) (JAK2V617F).
In the case of `Cc1ccc(O)c(NC(=O)COc2cc(C)c(Cl)c(C)c2)c1`, the IC50 (JAK2V617F) is > 40 µM (inactive).
Consider `COc1cc2ncnc(Nc3cccc(C)c3)c2cc1OC`, for which the IC50 by setting is: (HEL, irf1 reporter) 7.18 µM; (JAK2V617F) > 40 µM (inactive).
As for `COc1cc2ncnc(Sc3ccc(Cl)cc3)c2cc1OC`, the IC50 reads like this: (HEL, irf1 reporter) > 40 µM (inactive); (JAK2V617F) > 40 µM (inactive).
For the compound `Cc1nc([N+](=O)[O-])c(Br)n1CC(=O)c1ccc2ccccc2c1`, the 50% inhibitory concentration (IC50) is 5.1 µM (Ba/F3, irf1 reporter) and 21.1 µM (HEL, irf1 reporter).
The corresponding values for `CN(C)C(=S)SSC(=S)N(C)C` are 2.38 µM and 13.5 µM.
The corresponding values for `Cc1[nH]c2ccccc2c(=O)c1C(=O)/C=C/c1ccccc1` are > 40 µM (inactive) and 3.98 µM.
The matching figures for `Cc1oc2c(O)c(O)ccc2c(=O)c1-c1cnn(-c2ccccc2)c1`: 12.8 µM and 8.52 µM.
On to `N#C/C(=C\c1ccc(O)c(O)c1)C(=O)NCCc1ccccc1`, for which the half-inhibitory concentration (IC50) is, setting by setting: (Ba/F3, irf1 reporter) 0.2 µM; (HEL, irf1 reporter) 5.15 µM; (JAK2V617F) 0.79 µM.
Turning to `c1ccc2c(CN3CCCCCC3)c[nH]c2c1`, the IC50 is 14.3 µM (Ba/F3, irf1 reporter) and 15.9 µM (HEL, irf1 reporter).
The corresponding values for `O=C1C=C(Nc2ccc(O)cc2)C(=O)c2ccccc21` are 7.94 µM and 34.7 µM.
The corresponding values for `CS(=O)(=O)c1nc(-c2ccco2)cc(C(F)(F)F)n1` are 0.869 µM and 7.42 µM.
The corresponding values for `Cc1ccc2nc(C)cc(Nc3ccc([N+](=O)[O-])cc3)c2c1` are 3.43 µM and 5.98 µM.
Regarding `N#CC(C#N)=Cc1cc(O)c(O)c(I)c1`, the IC50 was 5.01 µM (Ba/F3, irf1 reporter); 19.6 µM (HEL, irf1 reporter); 8.82 µM (JAK2V617F).
As to `Cc1ccc(O)c(NC(=O)COc2ccccc2C)c1`, the IC50 (JAK2V617F) was > 40 µM (inactive).
As to `O=C1C=CC(=O)N1CCNc1ncc(C(F)(F)F)cc1Cl`, the IC50 is 0.699 µM (Ba/F3, irf1 reporter) and 9.81 µM (HEL, irf1 reporter).
As to `CC(C)[C@@H](CO)Nc1nc(Nc2cccc(Cl)c2)c2ncn(C(C)C)c2n1`, the IC50 is 0.84 µM (Ba/F3, irf1 reporter); 1.13 µM (HEL, irf1 reporter); 0.91 µM (JAK2V617F).
As to `COc1ccc(N2CCc3c(C)nc4c(OC)cc(OC)cc4c32)c(OC)c1`, the half-inhibitory concentration (IC50) (Ba/F3, irf1 reporter) is 7.67 µM.
Turning to `COc1cccc(/C=N/NC(=O)c2[nH]c(C)c(C(=O)N/N=C/c3cccc(OC)c3O)c2C)c1O`, the IC50 is 19.8 µM (Ba/F3, irf1 reporter) and 9.67 µM (HEL, irf1 reporter).
In the case of `COc1cc2ncnc(Nc3cccc(Br)c3)c2cc1OC`, the IC50 is 1.31 µM (Ba/F3, irf1 reporter); 3.16 µM (HEL, irf1 reporter); 4.94 µM (JAK2V617F).
With `Cc1cccc(OCC(=O)Nc2cc(C)ccc2O)c1`, the concentration for half-maximal inhibition (IC50) (Ba/F3, irf1 reporter) is 3.94 µM and the IC50 (HEL, irf1 reporter) is > 40 µM (inactive).
For `COc1ccc(Cl)cc1NC(=O)NC(C)c1ccncc1` (configuration not stated), the IC50 (HEL, irf1 reporter) is > 40 µM (inactive) and the IC50 (JAK2V617F) is > 40 µM (inactive).
Regarding `C/C(=C\c1ccc(N(C)C)cc1)[N+](=O)[O-]`, the half-inhibitory concentration (IC50) was 2.65 µM (Ba/F3, irf1 reporter) and 4.29 µM (HEL, irf1 reporter).
In the case of `Cc1ccccc1CS(=O)(=O)c1nnc([C@H](Cc2ccccc2)NC(=O)OC(C)(C)C)o1`, the IC50 is, setting by setting: (Ba/F3, irf1 reporter) 1.56 µM; (HEL, irf1 reporter) 13.5 µM.
The matching figures for `Cc1cccc(N(Cc2ccccc2)C(=O)CCl)c1`: 1.13 µM and 4.76 µM.
For `Cc1[nH]c(=O)c(C(=O)C=Cc2ccc(Cl)cc2Cl)c2c1CCCC2`, the IC50 was 0.53 µM (Ba/F3, irf1 reporter); 2.57 µM (HEL, irf1 reporter); 1.43 µM (JAK2V617F).
On to `CCCn1c(CN(C)Cc2ccccc2)nc2c1c(=O)n(C)c(=O)n2C`, for which the IC50 is 6.43 µM (Ba/F3, irf1 reporter) and > 40 µM (inactive) (HEL, irf1 reporter).
Turning to `CC(C)C1C(C#N)=C(N)Oc2n[nH]c(-c3ccc4ccccc4c3)c21` (configuration not stated), the half-maximal inhibitory concentration (IC50) runs as follows: (Ba/F3, irf1 reporter) 4.7 µM; (HEL, irf1 reporter) 16.1 µM.
Regarding `Cc1cccc(CS(=O)(=O)c2nnc([C@H](Cc3ccccc3)NC(=O)OC(C)(C)C)o2)c1`, the half-inhibitory concentration (IC50) is, setting by setting: (Ba/F3, irf1 reporter) 1.39 µM; (HEL, irf1 reporter) 11.6 µM.
As for `O=C(Nc1cccc2c1[nH]c1ccccc12)C(F)(F)F`, the concentration for half-maximal inhibition (IC50) by setting is: (Ba/F3, irf1 reporter) 18.9 µM; (HEL, irf1 reporter) 3.68 µM.
In the case of `CN(c1ccccc1)S(=O)(=O)c1cccc(C(=O)NCCc2ccc(O)c(O)c2)c1`, the IC50 is 3.02 µM (Ba/F3, irf1 reporter) and 2.97 µM (HEL, irf1 reporter).
With `CC1CCCC(NC(=O)NC(=O)CCl)C1C` (configuration not stated), the IC50 is 3.19 µM (Ba/F3, irf1 reporter) and 31.1 µM (HEL, irf1 reporter).
On to `CCCCn1c(=N)n(CC(=O)c2ccc(Br)s2)c2ccccc21`, for which the IC50 (Ba/F3, irf1 reporter) is 3.61 µM and the IC50 (HEL, irf1 reporter) is 9.86 µM.
As to `Cc1ccc(Nc2nc(N)nc(CCl)n2)cc1`, the IC50 (Ba/F3, irf1 reporter) is 12.7 µM and the half-inhibitory concentration (IC50) (HEL, irf1 reporter) was 5.6 µM.
`Cc1nn(Cc2ccc(Cl)cc2Cl)c(C)c1NC(=O)CCl`: the IC50 was 8.77 µM (Ba/F3, irf1 reporter) and 8.61 µM (HEL, irf1 reporter).
The matching figures for `CC1CCCN(CCCNC(=O)c2cc3c(Cl)nc4ccccc4c3s2)C1` (configuration not stated): 11.6 µM and > 40 µM (inactive).
Turning to `O=C(C=C=Nc1ccccc1)C(=O)N=C=Cc1ccccc1`, the IC50 (Ba/F3, irf1 reporter) is 1.31 µM and the 50% inhibitory concentration (IC50) (HEL, irf1 reporter) was 14.2 µM.
The corresponding values for `O=C(O)c1[nH]c(=O)[nH]c(=O)c1F` are > 40 µM (inactive) and > 40 µM (inactive).
The matching figures for `Nc1nc(CCl)nc(Nc2ccc3ccccc3c2)n1`: 7.46 µM and 0.958 µM.
Turning to `CCOc1cc2ncnc(Nc3cccc(Br)c3)c2cc1OCC`, the IC50 is 2.36 µM (Ba/F3, irf1 reporter); 2.59 µM (HEL, irf1 reporter); 7.12 µM (JAK2V617F).
The matching figures for `COc1cc2ncc(-c3ccccc3)nc2cc1OC`: > 40 µM (inactive), 0.69 µM and > 40 µM (inactive).
